Toxic doses and inconclusive results are not listed. No stated cut-off is given here; in the data, active means T/C of 150% or more; inactive means T/C below 125%.
Test system: L1210 leukemia ip in BDF1 mice, survival T/C
Test: NCI In Vivo Anticancer Drug Screen. Data for tumor model L1210 Leukemia (intraperitoneal) in B6D2F1 (BDF1) mice
Conditions: endpoint: mean survival time, higher = longer survival
How it was run: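 Survival endpoint. Drug-treated group vs vehicle group, expressed as T divided by C. Tumor passaged by transplantation.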

[1] = dose: 50.0 mg/kg/injection, schedule: Q01DX001 (ip), vehicle: saline

Measured: T/C

O=C1CCC(N2C(=O)c3ccccc3C2=O)C(=O)N1 (configuration not stated)
inactive: dose: 25.0 mg/kg/injection, schedule: Q01DX009 (ip), vehicle: Klucel (hydroxypropylcellulose) (HPC) 112 % of control | dose: 25.0 mg/kg/injection, schedule: Q04DX003 (ip), vehicle: Klucel (hydroxypropylcellulose) (HPC) 109 % of control | dose: 31.3 mg/kg/injection, schedule: Q01DX Z (ip), vehicle: saline 102 % of control | [1] 105 % of control | dose: 50.0 mg/kg/injection, schedule: Q01DX009 (ip), vehicle: Klucel (hydroxypropylcellulose) (HPC) 111 % of control | dose: 50.0 mg/kg/injection, schedule: Q04DX003 (ip), vehicle: Klucel (hydroxypropylcellulose) (HPC) 95 % of control | dose: 62.5 mg/kg/injection, schedule: Q01DX Z (ip), vehicle: saline 94 % of control | dose: 100.0 mg/kg/injection, schedule: Q01DX001 (ip), vehicle: saline 105 % of control | dose: 100.0 mg/kg/injection, schedule: Q01DX009 (ip), vehicle: Klucel (hydroxypropylcellulose) (HPC) 103 % of control | dose: 100.0 mg/kg/injection, schedule: Q01DX009 (ip), vehicle: saline 96 % of control | dose: 100.0 mg/kg/injection, schedule: Q04DX003 (ip), vehicle: Klucel (hydroxypropylcellulose) (HPC) 98 % of control | dose: 125.0 mg/kg/injection, schedule: Q01DX Z (ip), vehicle: saline 104 % of control | dose: 200.0 mg/kg/injection, schedule: Q01DX001 (ip), vehicle: saline 111 % of control | dose: 200.0 mg/kg/injection, schedule: Q01DX009 (ip), vehicle: Klucel (hydroxypropylcellulose) (HPC) 100 % of control | dose: 200.0 mg/kg/injection, schedule: Q01DX009 (ip), vehicle: saline 102 % of control | dose: 200.0 mg/kg/injection, schedule: Q04DX003 (ip), vehicle: Klucel (hydroxypropylcellulose) (HPC) 98 % of control | dose: 250.0 mg/kg/injection, schedule: Q01DX Z (ip), vehicle: saline 102 % of control | dose: 400.0 mg/kg/injection, schedule: Q01DX001 (ip), vehicle: saline 109 % of control | dose: 400.0 mg/kg/injection, schedule: Q01DX009 (ip), vehicle: Klucel (hydroxypropylcellulose) (HPC) 101 % of control | dose: 400.0 mg/kg/injection, schedule: Q01DX009 (ip), vehicle: saline 98 % of control | dose: 400.0 mg/kg/injection, schedule: Q04DX003 (ip), vehicle: Klucel (hydroxypropylcellulose) (HPC) 106 % of control | dose: 800.0 mg/kg/injection, schedule: Q01DX009 (ip), vehicle: saline 95 % of control

CCc1c(Cl)nc(N)nc1Cl
inactive: dose: 100.0 mg/kg/injection, schedule: Q01DX Z (ip), vehicle: methylcellulose (MC) 95 % of control | dose: 200.0 mg/kg/injection, schedule: Q01DX Z (ip), vehicle: methylcellulose (MC) 89 % of control

CCOC(=O)c1c(C)[nH]oc1=O
inactive: dose: 100.0 mg/kg/injection, schedule: Q04DX003 (ip), vehicle: saline 111 % of control | dose: 200.0 mg/kg/injection, schedule: Q04DX003 (ip), vehicle: saline 102 % of control | dose: 400.0 mg/kg/injection, schedule: Q04DX003 (ip), vehicle: saline 96 % of control

C/C=C/C(=O)Nc1cccc(OC(=O)NCC)c1
inactive: dose: 100.0 mg/kg/injection, schedule: Q04DX003 (ip), vehicle: saline with Tween-80 95 % of control | dose: 200.0 mg/kg/injection, schedule: Q04DX003 (ip), vehicle: saline with Tween-80 93 % of control | dose: 400.0 mg/kg/injection, schedule: Q04DX003 (ip), vehicle: saline with Tween-80 98 % of control

CNC(=O)c1cccc2c1-c1ccccc1C2=O
inactive: dose: 100.0 mg/kg/injection, schedule: Q01DX001 (ip), vehicle: other 91 % of control | dose: 200.0 mg/kg/injection, schedule: Q01DX001 (ip), vehicle: other 91 % of control | dose: 400.0 mg/kg/injection, schedule: Q01DX001 (ip), vehicle: other 91 % of control

COc1cc(C)c(Cl)c(C)c1C#CC(=O)O
inactive: dose: 75.0 mg/kg/injection, schedule: Q01DX009 (ip), vehicle: Klucel (hydroxypropylcellulose) (HPC) 101 % of control | dose: 150.0 mg/kg/injection, schedule: Q01DX009 (ip), vehicle: Klucel (hydroxypropylcellulose) (HPC) 100 % of control

CCOc1cc(C=Nc2cc(Cl)c(O)c(Cl)c2)ccc1N(CCCl)CCCl
inactive: dose: 5.0 mg/kg/injection, schedule: Q01DX009 (ip), vehicle: carboxymethylcellulose (CMC) 114 % of control | dose: 5.0 mg/kg/injection, schedule: Q01DX009 (ip), vehicle: saline 105 % of control | dose: 10.0 mg/kg/injection, schedule: Q01DX009 (ip), vehicle: saline 106 % of control | dose: 13.0 mg/kg/injection, schedule: Q01DX009 (ip), vehicle: carboxymethylcellulose (CMC) 120 % of control | dose: 25.0 mg/kg/injection, schedule: Q01DX001 (ip), vehicle: saline 109 % of control | dose: 44.0 mg/kg/injection, schedule: Q01DX001 (ip), vehicle: carboxymethylcellulose (CMC) 118 % of control | dose: 44.0 mg/kg/injection, schedule: Q01DX009 (ip), vehicle: other 113 % of control | [1] 116 % of control
active: dose: 100.0 mg/kg/injection, schedule: Q01DX001 (ip), vehicle: carboxymethylcellulose (CMC) 150 % of control

CCOC(=O)C(CC(OCC)OCC)C1=NC(C)(C)CC(C)O1 (configuration not stated)
inactive: dose: 100.0 mg/kg/injection, schedule: Q01DX001 (ip), vehicle: Klucel (hydroxypropylcellulose) (HPC) 105 % of control | dose: 200.0 mg/kg/injection, schedule: Q01DX001 (ip), vehicle: Klucel (hydroxypropylcellulose) (HPC) 89 % of control | dose: 400.0 mg/kg/injection, schedule: Q01DX001 (ip), vehicle: Klucel (hydroxypropylcellulose) (HPC) 100 % of control
